In ChEMBL document CHEMBL3351478 (Eur J Med Chem, 2014):
Activity calls are given as the source filed them. No cut-off for these calls is given here.

Tests used:
[1] = tested on: THP-1; experiment: (§1) Selectivity index, ratio of CC50 for human THP1 cells to IC50 for Leishmania donovani amastigotes infected in human THP1 cells; type: functional
[2] = tested on: THP-1; experiment: Induction of nitric oxide production in human THP1 cells infected with Leishmania donovani amastigotes at 32.3 uM incubated for 48 hrs by Griess assay relative to untreated control; type: functional, cell-based
[3] = tested on: Leishmania donovani; experiment: Antileishmanial activity against Leishmania donovani AG83 promastigotes assessed as parasite growth inhibition incubated for 92 hrs by MTT assay; type: functional, organism-based; conditions: AG83, 92 h
[4] = Cytotoxicity against human THP1 cells incubated for 92 hrs by MTT assay; type: cell-based; conditions: THP-1 cells
[5] = as §1; type: functional, THP-1
[6] = tested on: THP-1; experiment: Induction of nitric oxide production in human THP1 cells infected with Leishmania donovani amastigotes at 0.93 uM incubated for 48 hrs by Griess assay relative to untreated control; type: functional
[7] = tested on: THP-1; experiment: Induction of iNOS2 mRNA expression in human THP1 cells infected with Leishmania donovani amastigotes at 0.93 uM incubated for 5 hrs by RT-PCR method; type: functional, cell-based
[8] = tested on: Leishmania donovani; experiment: Antileishmanial activity against Leishmania donovani amastigotes infected in human THP1 cells assessed as parasite growth inhibition at 100 uM incubated for 48 hrs by Giemsa staining based optical microscopy; type: functional; conditions: THP-1, 48 h, read-out: GI
[9] = tested on: Leishmania donovani; experiment: microbe, parasite or virus in culture; conditions: THP-1, 48 h
Description: Antileishmanial activity against Leishmania donovani amastigotes infected in human THP1 cells at 10 to 210 uM incubated for 48 hrs by Giemsa staining based optical microscopy

[10] = tested on: Leishmania donovani; experiment: Antileishmanial activity against Leishmania donovani; type: functional, organism-based

In the case of sodium antimonygluconate, the Ratio CC50/IC50 [1] is reported as 10.1 and the Activity [2] is reported as “inactive”.

With `COc1cc(O)c2c(=O)c(OC)c(-c3cc(O)c(O)c(OC)c3)oc2c1` the IC50 [3] was 2.4 µM, the IC90 [3] was 28.1 µM and the CC50 at 92 h [4] was 124 µM. For the same compound, the “Ratio CC50/IC50” value [5] was 133.01, the “fold change (FC)” value [6] was 8.4 and the Activity [7] was “Active”. For the same compound, the inhibition of growth at 100 µM [8] was 100% and the IC50 [9] was 0.93 µM.

With `COc1cc(-c2oc3cc(O)cc(O)c3c(=O)c2O)cc(OC)c1OC` the IC50 [10] was > 30 mg/L.
